Reference: article PMC7496268, “Activity‐Directed Synthesis of Inhibitors of the p53/hDM2 Protein–Protein Interaction” (Chemistry (Weinheim an Der Bergstrasse, Germany), 2020)

target: T1, hDM2 (Homo sapiens, UniProt Q00987); test: biochemical; design: fluorescence anisotropy competition, displacement of fluorescein-labelled p53 15-31 peptide from hDM2; conditions: read-out: FA IC50
T1 construct: gene MDM2; 15N-labelled for NMR; the anisotropy footnote prints hDM2_17-25, apparently a misprint of 17-125
Protocol: The assay was then implemented similarly to the examples above to give final compound concentrations between 160 – 0.08 µM. IC50 values were determined and curves were fit in Origin Pro 2019b using a non-linear curve fitting with the dose response fitting procedure and Levenberg Marquardt iteration algorithm. 17 5.2 Fluorescence anisotropy assays The fluorescein-labelled p5315-31 Flu transactivation domain peptide (Ac-[…](Flu)- NH2) was purchased from Peptide Synthetics. The assay was carried out using Perkin-Elmer 384-well Opti-plate assay plates (6007270). Fluorescence anisotropy assays were performed in a buffer containing 40 mM phosphate pH 7.5, 200 mM NaCl and 0.02 mg/mL bovine serum albumin (PBSA). Results were collected using a Perkin-Elmer Envision 2103 Multilabel Reader using a 431 nm mirror, 480(104) nm excitation filter, and 535(208) and 535(209) nm emission filters after 2.5 or 24 hours of incubation at room temperature. Test well anisotropy values were then calculated using the blank corrected S and P channel values using the following formula: […]

Point of comparison: `O=C(CO[C@@H]1CCc2cc(Cl)ccc21)N1CC[C@@H](c2ccccc2)C1` [P2a], IC50 28.2 ± 3 µM. Against it:
- O=C(CO[C@@H]1CCc2cc(Cl)ccc21)N1CC[C@H](c2ccccc2)C1 [ent-P2b] — within error, 28.6 ± 2.9 µM
- O=C(COC1CCCC1)N1CCC(c2ccccc2)C1 (centres unmarked) [SI1] — higher, > 200 µM
- O=C(CO[C@H]1CCc2cc(Cl)ccc21)N1CC[C@H](c2ccccc2)C1 [ent-P2a] — within error, 26 ± 3.8 µM
- O=C(CO[C@H]1CCc2cc(Cl)ccc21)N1CC[C@@H](c2ccccc2)C1 [P2b] — within 1.5-fold, 36.5 ± 3.5 µM
- O=C(COC1CCc2cc(Cl)ccc21)N1CCCC1 (centres unmarked) [SI2] — higher, > 200 µM

target: T1, hDM2; test: fluorescence anisotropy competition, displacement of fluorescein-labelled p53 tracer peptide; assay type: binding; conditions: read-out: Fluorescence anisotropy^[c] IC50
Excerpt: fluorescence anisotropy competition, displacement of fluorescein-labelled p53 tracer peptide on hDM2

Point of comparison: `O=C(COC1CCc2cc(Cl)ccc21)N1CCC(c2ccccc2)C1` (centres unmarked) [P2], IC50 15 ± 0.1 µM. Against it:
- CN1C(=O)C(c2ccc(Cl)cc2)c2cc(Cl)ccc21 (centres unmarked) [P3] — higher, > 100 µM
- CCOCC1CC12C(=O)Nc1cc(Cl)ccc12 (centres unmarked) [P7] — higher, > 160 µM
- CN(C(=O)C(=O)c1ccc(Cl)cc1)c1ccc(Cl)cc1 [P4] — higher, > 30 µM
- O=C1Nc2cc(Cl)ccc2C1c1c[nH]c2cc(Cl)ccc12 (centres unmarked) [P6] — 16-fold lower, 0.94 ± 0.03 µM

same assay, conditions: […] hDM2, […] tracer, […] BSA, […] NaCl, […] DMSO, […] phosphate pH […] h; unreliable (limited solubility)

`O=C1Nc2cc(Cl)ccc2C12CC2c1ccc(Cl)cc1` (centres unmarked) [P5] was tested, and the “Fluorescence anisotropy^[c] IC50 [μM]” value was ~ 10 μM.

target: T1, hDM2; test: 1H-15N HSQC NMR titration; conditions: read-out: NMR Binding^[d] (K d/μM)
Excerpt: 1H-15N HSQC NMR titration on hDM2

Point of comparison: `CN(C(=O)C(=O)c1ccc(Cl)cc1)c1ccc(Cl)cc1` [P4], Kd 35 ± 16 µM. Against it:
- O=C(COC1CCc2cc(Cl)ccc21)N1CCC(c2ccccc2)C1 (centres unmarked) [P2] — within error, 34 ± 13 µM
